Test results published in the supplement of paper PMC10883282.
± gives the standard deviation of the averaged measurements.

Tests used:
Assay in all cases: relative viability vs DMSO control (72 h) (fraction); higher = more viable cells
G401 = system: G401
Outline: (§1)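 Densities for seeding sarcoma cell lines into 384-well plates were set to give 80–90% confluence. After 24 h, 2.5 µl of serially diluted compound from source plates of 10 mM to 0.0002 mM went in, and plates stayed 72 h at 37 °C in 5% CO2 with 0.1% DMSO vehicle and a 5 µM positive control. Percent growth from ATPLite readings, averaged over up to triplicate wells, served as relative viability, rescaled so 1 means full and 0 means none.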

HT1080 = system: HT1080
Outline: as §1

KHOS-NP = system: KHOS-NP
Outline: as §1

MES-SA = system: MES-SA
Outline: as §1

RD-ES = system: RD-ES
Outline: as §1

RD = system: RD
Outline: as §1

SK-ES-1 = system: SK-ES-1
Outline: as §1

SK-LMS-1 = system: SK-LMS-1
Outline: as §1

SW1353 = system: SW1353
Outline: as §1

SW684 = system: SW684
Outline: as §1

SW872 = system: SW872
Outline: as §1

VA-ES-BJ = system: VA-ES-BJ
Outline: as §1

For COc1cc2nccc(Oc3ccc(NC(=O)NC4CC4)c(Cl)c3)c2cc1C(N)=O [Lenvatinib], the relative viability (G401; 0.00017 µM) was 0.992 ± 0.036, the relative viability (G401; 0.00051 µM) was 0.981 ± 0.017 and the relative viability (G401; 0.00152 µM) was 1.01 ± 0.018. For the same compound, the relative viability (G401; 0.00457 µM) was 0.982 ± 0.025, the relative viability (G401; 0.01372 µM) was 1.006 ± 0.0088 and the relative viability (G401; 0.04115 µM) was 0.974 ± 0.04. It also gave a relative viability (G401; 0.1235 µM) of 0.919 ± 0.04, a relative viability (G401; 0.3704 µM) of 0.848 ± 0.022 and a relative viability (G401; 1.111 µM) of 0.55 ± 0.021. The relative viability (G401; 3.333 µM) was 0.434 ± 0.017, the relative viability (G401; 10 µM) was 0.357 ± 0.033 and the relative viability (HT1080; 0.00017 µM) was 1.07 ± 0.03. For the same compound, the relative viability (HT1080; 0.00051 µM) was 1.06 ± 0.023, the relative viability (HT1080; 0.00152 µM) was 1.08 ± 0.051 and the relative viability (HT1080; 0.00457 µM) was 1.05 ± 0.078. It also gave a relative viability (HT1080; 0.01372 µM) of 1.08 ± 0.051, a relative viability (HT1080; 0.04115 µM) of 1.06 ± 0.014 and a relative viability (HT1080; 0.1235 µM) of 1.06 ± 0.042. It also gave a relative viability (HT1080; 0.3704 µM) of 1.07 ± 0.057, a relative viability (HT1080; 1.111 µM) of 1.09 ± 0.063 and a relative viability (HT1080; 3.333 µM) of 1.09 ± 0.048. For the same compound, the relative viability (HT1080; 10 µM) was 1.12 ± 0.085, the relative viability (KHOS-NP; 0.00017 µM) was 1.07 ± 0.045 and the relative viability (KHOS-NP; 0.00051 µM) was 1.04 ± 0.012. It also gave a relative viability (KHOS-NP; 0.00152 µM) of 1.05 ± 0.016, a relative viability (KHOS-NP; 0.00457 µM) of 1.07 ± 0.018 and a relative viability (KHOS-NP; 0.01372 µM) of 1.08 ± 0.021. It also gave a relative viability (KHOS-NP; 0.04115 µM) of 1.08 ± 0.011, a relative viability (KHOS-NP; 0.1235 µM) of 1.06 ± 0.03 and a relative viability (KHOS-NP; 0.3704 µM) of 1.091 ± 0.0063. It also gave a relative viability (KHOS-NP; 1.111 µM) of 1.07 ± 0.0038, a relative viability (KHOS-NP; 3.333 µM) of 1.09 ± 0.021 and a relative viability (KHOS-NP; 10 µM) of 1.08 ± 0.015. The relative viability (MES-SA; 0.00017 µM) was 1.01 ± 0.019, the relative viability (MES-SA; 0.00051 µM) was 0.958 ± 0.026 and the relative viability (MES-SA; 0.00152 µM) was 0.971 ± 0.021. The relative viability (MES-SA; 0.00457 µM) was 0.9651 ± 0.0046, the relative viability (MES-SA; 0.01372 µM) was 0.942 ± 0.021 and the relative viability (MES-SA; 0.04115 µM) was 0.939 ± 0.02. It also gave a relative viability (MES-SA; 0.1235 µM) of 0.964 ± 0.051, a relative viability (MES-SA; 0.3704 µM) of 0.936 ± 0.022 and a relative viability (MES-SA; 1.111 µM) of 0.765 ± 0.032. For the same compound, the relative viability (MES-SA; 3.333 µM) was 0.597 ± 0.044, the relative viability (MES-SA; 10 µM) was 0.454 ± 0.14 and the relative viability (RD-ES; 0.00017 µM) was 0.959 ± 0.049. The relative viability (RD-ES; 0.00051 µM) was 0.98 ± 0.051, the relative viability (RD-ES; 0.00152 µM) was 0.959 ± 0.042 and the relative viability (RD-ES; 0.00457 µM) was 0.961 ± 0.024. The relative viability (RD-ES; 0.01372 µM) was 0.923 ± 0.039, the relative viability (RD-ES; 0.04115 µM) was 0.942 ± 0.047 and the relative viability (RD-ES; 0.1235 µM) was 0.875 ± 0.055. The relative viability (RD-ES; 0.3704 µM) was 0.857 ± 0.052, the relative viability (RD-ES; 1.111 µM) was 0.852 ± 0.022 and the relative viability (RD-ES; 3.333 µM) was 0.835 ± 0.025. The relative viability (RD-ES; 10 µM) was 0.815 ± 0.04, the relative viability (RD; 0.00017 µM) was 0.985 ± 0.07 and the relative viability (RD; 0.00051 µM) was 0.993 ± 0.08. For the same compound, the relative viability (RD; 0.00152 µM) was 1.04 ± 0.052, the relative viability (RD; 0.00457 µM) was 1.04 ± 0.042 and the relative viability (RD; 0.01372 µM) was 1.02 ± 0.078. It also gave a relative viability (RD; 0.04115 µM) of 1.02 ± 0.063, a relative viability (RD; 0.1235 µM) of 1.04 ± 0.026 and a relative viability (RD; 0.3704 µM) of 1.047 ± 0.0078. For the same compound, the relative viability (RD; 1.111 µM) was 1.04 ± 0.039, the relative viability (RD; 3.333 µM) was 1.08 ± 0.027 and the relative viability (RD; 10 µM) was 0.984 ± 0.062. It also gave a relative viability (SK-ES-1; 0.00017 µM) of 0.985 ± 0.02, a relative viability (SK-ES-1; 0.00051 µM) of 1.01 ± 0.05 and a relative viability (SK-ES-1; 0.00152 µM) of 0.9845 ± 0.0066. It also gave a relative viability (SK-ES-1; 0.00457 µM) of 0.958 ± 0.065, a relative viability (SK-ES-1; 0.01372 µM) of 0.979 ± 0.066 and a relative viability (SK-ES-1; 0.04115 µM) of 0.938 ± 0.026. It also gave a relative viability (SK-ES-1; 0.1235 µM) of 0.911 ± 0.074, a relative viability (SK-ES-1; 0.3704 µM) of 0.881 ± 0.019 and a relative viability (SK-ES-1; 1.111 µM) of 0.791 ± 0.061. For the same compound, the relative viability (SK-ES-1; 3.333 µM) was 0.689 ± 0.025, the relative viability (SK-ES-1; 10 µM) was 0.593 ± 0.032 and the relative viability (SK-LMS-1; 0.00017 µM) was 1.02 ± 0.035. For the same compound, the relative viability (SK-LMS-1; 0.00051 µM) was 1.01 ± 0.037, the relative viability (SK-LMS-1; 0.00152 µM) was 1.04 ± 0.023 and the relative viability (SK-LMS-1; 0.00457 µM) was 1.05 ± 0.029. It also gave a relative viability (SK-LMS-1; 0.01372 µM) of 0.998 ± 0.059, a relative viability (SK-LMS-1; 0.04115 µM) of 1.04 ± 0.05 and a relative viability (SK-LMS-1; 0.1235 µM) of 0.997 ± 0.046. For the same compound, the relative viability (SK-LMS-1; 0.3704 µM) was 1.04 ± 0.032, the relative viability (SK-LMS-1; 1.111 µM) was 0.98 ± 0.033 and the relative viability (SK-LMS-1; 3.333 µM) was 0.953 ± 0.033. It also gave a relative viability (SK-LMS-1; 10 µM) of 0.972 ± 0.049, a relative viability (SW1353; 0.00017 µM) of 1.01 ± 0.046 and a relative viability (SW1353; 0.00051 µM) of 0.999 ± 0.033. It also gave a relative viability (SW1353; 0.00152 µM) of 0.986 ± 0.062, a relative viability (SW1353; 0.00457 µM) of 0.982 ± 0.016 and a relative viability (SW1353; 0.01372 µM) of 0.931 ± 0.043. The relative viability (SW1353; 0.04115 µM) was 0.943 ± 0.0073, the relative viability (SW1353; 0.1235 µM) was 0.902 ± 0.014 and the relative viability (SW1353; 0.3704 µM) was 0.872 ± 0.014. For the same compound, the relative viability (SW1353; 1.111 µM) was 0.859 ± 0.05, the relative viability (SW1353; 3.333 µM) was 0.83 ± 0.029 and the relative viability (SW1353; 10 µM) was 0.817 ± 0.032. It also gave a relative viability (SW684; 0.00017 µM) of 1.13 ± 0.024, a relative viability (SW684; 0.00051 µM) of 1.12 ± 0.08 and a relative viability (SW684; 0.00152 µM) of 1.14 ± 0.015. For the same compound, the relative viability (SW684; 0.00457 µM) was 1.133 ± 0.0058, the relative viability (SW684; 0.01372 µM) was 1.13 ± 0.012 and the relative viability (SW684; 0.04115 µM) was 1.13 ± 0.059. The relative viability (SW684; 0.1235 µM) was 1.11 ± 0.049, the relative viability (SW684; 0.3704 µM) was 1.14 ± 0.028 and the relative viability (SW684; 1.111 µM) was 1.16 ± 0.042. It also gave a relative viability (SW684; 3.333 µM) of 1.19 ± 0.0064, a relative viability (SW684; 10 µM) of 1.11 ± 0.043 and a relative viability (SW872; 0.00017 µM) of 1.07 ± 0.051. The relative viability (SW872; 0.00051 µM) was 1.1 ± 0.02, the relative viability (SW872; 0.00152 µM) was 1.08 ± 0.05 and the relative viability (SW872; 0.00457 µM) was 1.07 ± 0.024. It also gave a relative viability (SW872; 0.01372 µM) of 1.05 ± 0.025, a relative viability (SW872; 0.04115 µM) of 1.05 ± 0.054 and a relative viability (SW872; 0.1235 µM) of 1.03 ± 0.036. For the same compound, the relative viability (SW872; 0.3704 µM) was 1.05 ± 0.047, the relative viability (SW872; 1.111 µM) was 1.06 ± 0.043 and the relative viability (SW872; 3.333 µM) was 1.05 ± 0.043. For the same compound, the relative viability (SW872; 10 µM) was 0.953 ± 0.01, the relative viability (VA-ES-BJ; 0.00017 µM) was 1.07 ± 0.011 and the relative viability (VA-ES-BJ; 0.00051 µM) was 1.06 ± 0.017. The relative viability (VA-ES-BJ; 0.00152 µM) was 1.08 ± 0.021, the relative viability (VA-ES-BJ; 0.00457 µM) was 1.1 ± 0.022 and the relative viability (VA-ES-BJ; 0.01372 µM) was 1.12 ± 0.015. The relative viability (VA-ES-BJ; 0.04115 µM) was 1.11 ± 0.037, the relative viability (VA-ES-BJ; 0.1235 µM) was 1.13 ± 0.082 and the relative viability (VA-ES-BJ; 0.3704 µM) was 1.13 ± 0.083. It also gave a relative viability (VA-ES-BJ; 1.111 µM) of 1.15 ± 0.043, a relative viability (VA-ES-BJ; 3.333 µM) of 1.118 ± 0.0078 and a relative viability (VA-ES-BJ; 10 µM) of 1.04 ± 0.068.
